SMILES strings stand for the structures. “Also recorded” adds a separate entry of the source.

The test system of data set [1] is RAW 264.7 cells. As to the kind of experiment: RANKL-induced osteoclast formation by RAW 264.7 cells, TRAP staining. Type of data set: cell-based, mouse. Particulars: for osteoclast differentiation (TRAP+ multinucleated osteoclasts): exposure 4 days. How it is done:
RAW 264.7 mouse macrophage/monocytes (TIB-71) were purchased from ATCC (Manassas, Va.). Cells were cultured in DMEM/1.5 g/l sodium bicarbonate (JRH Biosciences, Lenexa, Kans.) plus 10% non-heat-inactivated FBS (Invitrogen Corporation Carlsbad, Calif.). When needed, 5-HT was stripped from the FBS by incubating it twice in 0.25% Dextran-coated charcoal (Sigma-Aldrich, St. Louis, Mo.) for 30 minutes at 45° C. Recombinant mouse soluble RANKL (Immunex Corp., Seattle, Wash.) was added at a concentration of 10 ng/ml. Recombinant murine RANKL is an NH2-terminal fusion of a leucine zipper trimerization domain (Fanslow et al., 1994, Semin. Immunol. 6(5):267-278) with residues 134-316 of murine RANKL. […] Cultures were also exposed to the VMAT inhibitor reserpine and the MAO-B inhibitor pargylline (Sigma-Aldrich, St. Louis, Mo.), at the indicated concentrations for 4 days. Mouse bone marrow cells were obtained from long bones of 2-week old C57B1 mice and cultured for 7 days in αMEM/FBS supplemented with 50 ng/ml RANKL and 50 ng/ml human M-CSF (PeproTech Inc., Rocky Hill, N.J.).
(§1) Cells were stained for tartrate-resistant acid phosphatase (TRAP) using a commercially available kit (#387-A, Sigma-Aldrich, St. Louis, Mo.), according to the manufacturer's directions.

The subject of data set [2] is cathepsin K, MMP-9, TRAP expression. As to the kind of experiment: Northern blot analysis of osteoclast markers in RANKL-stimulated RAW 264.7 cells. Type of data set: cell-based, mouse. Set-up: reduction in the expression of cathepsin K / reduction in the expression of MMP-9 / reduction in the expression of TRAP: dose or concentration left out as unconfirmed. How it is done: Total RNA was extracted from cells using the TRIAZOL reagent (Invitrogen Corporation, Carlsbad, Calif.), according to the manufacturer's instructions. For RT-PCR, […] of RNA were reversed-transcribed to cDNA using SuperScript II (Invitrogen Corporation, Carlsbad, Calif.) following the manufacturer's instructions. One-tenth of the cDNA was used as a template for the polymerase chain reaction (PCR) […] (35 cycles at 94° C. for 1 minute, 58° C. for 1 minute and 72° C. for 1 minute). For Northern blot analysis, […] of RNA were size fractionated on a 1.2% agarose denaturing gel and transferred onto nylon membranes. The membranes were hybridized to ^32P radiolabeled probes overnight at 42° C. in hybridization solution (50% formamide, 5× SSC, 5× Denhardt's solution, 0.5% SDS and […] salmon sperm DNA), washed twice to remove unbound probe in 1× SSC, 0.2% SDS at 50° C. for 20 minutes, and exposed to X-ray film. The DNA probes were generated by reverse transcriptase polymerase chain reaction (RT-PCR) from OCL RNA, using the following primer-pairs: […]

Data set [3] has as its system Swiss Webster mice. As to the kind of experiment: Femur bone mass by microcomputer tomography after fluoxetine (Example 6). Type of data set: in vivo. On the set-up: Trabecular thickness: unit not given here. Particulars: for Trabecular number / Trabecular spacing / Trabecular thickness / connectedness of trabeculae: hydrochloride.
Data set [4] deals with Primary osteoblasts obtained from mouse calvaria. As to the kind of experiment: Bone nodule formation in vitro, Von Kossa stain (Example 5). Type of data set: cell-based. Particulars: two weeks in presence of Vitamin D, presence vs absence of fluoxetine. How it is done:
Primary osteoblasts obtained from mouse calvaria were cultured in vitro for two weeks. […] The cells were then fixed and stained with Von Kossa stain, which stains for calcium phosphate present in bone nodules. Bone nodules formed by osteoblasts in vitro have the same cellular and biochemical composition found in bone. The number of bone nodules were counted.

For data set [5], the system named is normal mouse bone marrow cells (BMC). As to the kind of experiment: Osteoclast formation from normal mouse bone marrow cells with M-CSF and RANKL. The data set is classed as cell-based. Particulars: TRAP staining. How it is done: Mouse bone marrow cells were obtained from long bones of 2-week old C57B1 mice and cultured for 7 days in αMEM/FBS supplemented with 50 ng/ml RANKL and 50 ng/ml human M-CSF (PeproTech Inc., Rocky Hill, N.J.).
as §1

Data set [6] concerns Swiss Webster mice. As to the kind of experiment: Systemic fluoxetine, trabecular parameters in mice (Example 2). The data set is classed as in vivo. Particulars: fluoxetine 10 mg/kg i.p. once a day for 6 weeks, vs non-treated mice. The source says:
After 6 weeks the animals were sacrificed and trabecular bones were examined.
The increased number, increased connectivity, and decreased space between the transversal structures (i.e. trabeculae) of “spongelike bone” is indicative of increased density and strength of trabecular bone.

For data set [7], the system named is mice. As to the kind of experiment: New bone formation in calvarium after LPS or PTH plus fluoxetine, Van Giesson stain (Example 3). The data set is classed as in vivo. The method, then:
LPS (50 μl at 5 μg/μl) or PTH was injected subcutaneously above the calvarial bone once on day one to stimulate the osteoclasts.
After five days, the mice were sacrificed. The calvarium was fixed, decalcified, and analyzed histologically for new bone formation. Van Giesson stain was used to distinguish old bone from new bone (new bone stains blue). […] The x-axis represents arbitrary units of new bone formation, where 0 represents no new bone and 3 represents high amount of new bone.

The conditions of data set [8]: cited from earlier work.
The mark [9] stands for this setting: added serotonin in 5-HT-depleted FBS, Days 3 and 4 after RANKL induction.
[10] abbreviates: RANKL-stimulated RAW 264.7 cells.
Setting [11] is: femur, fluoxetine 10 mg/kg i.p. daily for six weeks, n = 6.
[12] abbreviates: femur, fluoxetine 10 mg/kg i.p. daily for six weeks, n = 6, listed as Fluoxetine.
Where [13] appears, read: fluoxetine-treated vs untreated mice.

As to `COC(=O)[C@H]1[C@H]2C[C@@H]3c4[nH]c5cc(OC)ccc5c4CCN3C[C@H]2C[C@@H](OC(=O)c2cc(OC)c(OC)c(OC)c2)[C@@H]1OC` [reserpine], in data set [1] (absence of RANKL), the “TRAP expression by mono- and bi-nucleated cells” value is “induced TRAP expression”; the “formation of large multinucleated osteoclasts” value is recorded as “not formed”. Besides, in data set [1] (presence of RANKL), the “osteoclast differentiation (TRAP+ multinucleated osteoclasts)” value is given as “promoted osteoclast differentiation”. Further, the “cell size and multinucleation” value in data set [1] (presence of RANKL, reserpine treatment) was “stimulated the formation of much larger cells with greater multinucleation”.
In the case of `NCCc1c[nH]c2ccc(O)cc12` [serotonin, 5-hydroxytryptamine], in data set [2] (setting [9]), the MMP-9 expression entry was “up-regulated” and the “cathepsin K expression” value is “up-regulated”. Also, the number of osteoclasts result in data set [1] (added serotonin at 30 or 300 ng/ml, 5-HT depleted FBS, RANKL-stimulated) was “significantly increased”. Moreover, the osteoclast formation result in data set [1] (addition of serotonin 3-300 ng/ml, cultures containing FBS (5-HT replete)) was “had no effect”.
Turning to `C#CCN(C)Cc1ccccc1` [pargylline], the “osteoclast differentiation (TRAP+ multinucleated osteoclasts)” value in data set [1] (presence of RANKL) was “had no effect”.
On to `CNCCC(Oc1ccc(C(F)(F)F)cc1)c1ccccc1.Cl` (racemic) [fluoxetine, (+/−)—N-methyl-3-phenyl-3-[(α,α,α-trifluoro-p-tolyl)oxy]propylamine hydrochloride], for which, in data set [2] (setting [10]), the “reduction in the expression of MMP-9” value is on record as 80%, the “reduction in the expression of TRAP” value is given as about 20% and the “reduction in the expression of cathepsin K” value is about 70%. In data set [3] (setting [11]), the Bone surface is listed as 16.9 ± 7.3 mm^2, the Trabecular number result was “significant increases”, the Trabecular spacing entry is given as “reduction” and the Trabecular thickness entry is recorded as “stable”. Moreover, the connectedness of trabeculae result in data set [3] (setting [11]) was “better connected”. In data set [3] (femur, fluoxetine 10 mg/kg i.p. daily for six weeks, n = 6, in % (unit assumed)), this molecule gave a Bone volume/total volume of 16.7 ± 7.3. Moreover, in data set [3] (setting [12]), the Trabecular number is recorded as 3.26 ± 0.53, the Trabecular spacing is given as 0.32 ± 0.05, the Trabecular thickness was determined as 0.09 ± 0.01 and the connectedness of trabeculae stood at 114.2 ± 53.0. For the same molecule, in data set [3] (setting [13]), the “increase in bone mineral content” value amounted to 50%, the “increase in bone surface” value is 50% and the “increase in bone volume/total volume” value amounted to 50%. The “number of bone nodules” value in data set [4] is “increased”. In addition, the BMC-derived osteoclast formation entry in data set [5] is reported as “significantly inhibited”. Further, in data set [6], the Trabecular spacing entry is “decreased”, the “number of trabeculae per unit length of bone” value is “increased” and the thickness of trabeculae result is recorded as “no significant difference”. In addition, in data set [6] (hydrochloride), the “bone mineral content (BMC)” value was “increase” and the connectedness of trabeculae result is on record as “more connected; also recorded: increase”. In addition, the new bone formation result in data set [7] (LPS injected above calvarial bone on day one, fluoxetine 10 mg/kg i.p. once a day for five days, vs LPS alone, hydrochloride) is given as “increased new bone formation; also recorded: greater increase in new bone”. Moreover, the new bone formation result in data set [7] (co-administration of fluoxetine and PTH, vs PTH alone) is listed as “greater increase in new bone”. Besides, the “formation of TRAP positive cells” value in data set [1] (RANKL-induced RAW 264.7 cells, fluoxetine concentration series) is given as “inhibited the formation of TRAP positive cells in a dose-dependent manner”. In addition, in data set [1] (RANKL-induced, 5-HT replete (FBS) and depleted (FBS−) serum), the “osteoclast differentiation (TRAP positive multinucleated cells)” value is “suppressed osteoclast differentiation”. Moreover, the half-life in data set [8] (stated with the dosage range for treating depression) is 170 to 220 h. For the same molecule, the ½ life in data set [8] (stated with the mouse i.p. regimen of Example 2) was 1 to 2 days.

A word on the half-life: it is the time needed for the level to fall by half in the phase considered.
